Source: US8883782B2, “Spiro-tetracyclic ring compounds as beta-secretase modulators and methods of use” (Amgen Inc., priority 2010, dated 2014)
Where two headings read alike, the source gives them in different places.

Assays:
[1] = tested on: Aβ40 in conditioned medium of cells stably expressing Amyloid Precursor Protein (APP); experiment: In vitro BACE cell-based assay (Aβ40 in conditioned medium, sandwich ELISA); details: read-out: HEK cell assay
Procedure, shortened: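 The sandwich ELISA pairs pAb40 capture (3 h, 4 °C) with 6E10 detection (2 h, 4 °C) and a streptavidin-europium TRF read-out. Supernatants come from APP-expressing cells grown in 10% FBS DMEM.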

[2] = target: Beta Secretase enzyme (BACE) (Homo sapiens, UniProt P56817); experiment: In vitro enzymatic BACE FRET (fluorescence resonance energy transfer) assay; assay type: biochemical; details: average IC50, enzyme assay; read-out: BACE 1 FRET assay
Procedure, shortened: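 Acetate buffer (0.05 M, pH 4.2), 10% DMSO final, 100 uM nonionic detergent genapol. Substrate addition (50 nM FRET peptide) initiates; one-hour incubation; Tris raises pH to neutrality before fluorescence measurement.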

[3] = Homo sapiens, HEK293, average IC50
[4] = Homo sapiens, HEK293, average IC50, HEK cells

Chain of Beta Secretase enzyme (BACE) (P56817 46-501, species assumed): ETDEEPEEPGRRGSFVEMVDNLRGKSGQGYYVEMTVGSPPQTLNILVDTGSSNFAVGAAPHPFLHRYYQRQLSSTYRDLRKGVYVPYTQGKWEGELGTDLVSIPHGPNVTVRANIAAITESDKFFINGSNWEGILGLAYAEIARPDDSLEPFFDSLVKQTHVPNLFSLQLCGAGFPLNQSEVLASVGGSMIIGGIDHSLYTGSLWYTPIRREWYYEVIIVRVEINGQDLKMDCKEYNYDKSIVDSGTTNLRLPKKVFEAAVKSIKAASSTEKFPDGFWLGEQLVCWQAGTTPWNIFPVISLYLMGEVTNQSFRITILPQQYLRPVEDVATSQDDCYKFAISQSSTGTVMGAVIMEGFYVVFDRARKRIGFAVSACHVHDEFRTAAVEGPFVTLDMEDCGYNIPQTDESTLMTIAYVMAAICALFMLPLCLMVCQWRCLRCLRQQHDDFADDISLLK

Structure (SMILES) | IC50 [1] | IC50 [2] | IC50 ([1]; average IC50, HEK cells) | IC50 [1, 3] | IC50 [1, 4]
NC1=N[C@@]2(CO1)c1cc(-c3c(F)ccnc3F)ccc1Oc1cnc([C@H]3CCCOC3)cc12 (mixture of isomers) [Example 909, (5S)-7-(2,4-difluoro-3-pyridinyl)-3-((3R)-tetrahydro-2H-pyran-3-yl)spiro[chromeno[2,3-c]pyridine-5,4′-[1,3]oxazol]-2′-amine, (5S)-7-(2,4-difluoro-3-pyridinyl)-3-((3S)-tetrahydro-2H-pyran-3-yl)spiro[chromeno[2,3-c]pyridine-5,4′-[1,3]oxazol]-2′-amine] | 266 nM | 19.8 nM |  |  | 
CC1(C)C[C@@H](c2cnc3c(c2)[C@]2(COC(N)=N2)c2cc(-c4cncc(Cl)c4)ccc2O3)CCO1 [Example 476, (5S)-7-(5-chloro-3-pyridinyl)-3-((4S)-2,2-dimethyltetrahydro-2H-pyran-4-yl)spiro[chromeno[2,3-b]pyridine-5,4′-[1,3]oxazol]-2′-amine] |  | 1.3 nM | 4.9 nM |  | 
CC1(C)CC(=O)N(c2cc(F)c3c(c2)[C@]2(COC(N)=N2)c2cc(-c4cccnc4F)ccc2O3)C1 [Example 797, 1-((4S)-2-amino-4′-fluoro-7′-(2-fluoro-3-pyridinyl)spiro[1,3-oxazole-4,9′-xanthen]-2′-yl)-4,4-dimethyl-2-pyrrolidinone] |  | 0.6 nM |  | 7 nM | 
CC(C)(C)COc1ccc2c(c1)[C@]1(COC(N)=N1)c1cc(C3=CCCOC3)ccc1O2 [Example 910, (4S)-2′-(5,6-dihydro-2H-pyran-3-yl)-7′-(2,2-dimethylpropoxy)spiro[1,3-oxazole-4,9′-xanthen]-2-amine] |  | 22.3 nM |  |  | 1770 nM
CC1(/C=C/c2cnc3c(c2)[C@]2(COC(N)=N2)c2cc(-c4ccc(F)nc4)ccc2O3)COC1 [Example 176, (5S)-7-(6-fluoro-3-pyridinyl)-3-((E)-2-(3-methyl-3-oxetanyl)ethenyl)spiro[chromeno[2,3-b]pyridine-5,4′-[1,3]oxazol]-2′-amine] |  | 1.2 nM |  | 3.2 nM | 
CC(C)(O)CCc1cc(F)c2c(c1)[C@]1(COC(N)=N1)c1cc(-c3cccnc3F)ccc1O2 [Example 92, (S)-4-(2-amino-5′-fluoro-2′-(2-fluoropyridin-3-yl)-5H-spiro[oxazole-4,9′-xanthene]-7′-yl)-2-methylbutan-2-ol] |  | 1 nM |  | 4.2 nM | 
CC1(COc2cc(F)c3c(c2)[C@]2(CSC(N)=N2)c2cc(-c4cccnc4F)ccc2O3)COC1 [Example 794, (4S)-4′-fluoro-7′-(2-fluoro-3-pyridinyl)-2′-((3-methyl-3-oxetanyl)methoxy)spiro[1,3-thiazole-4,9′-xanthen]-2-amine] |  | 0.2 nM |  | 6 nM | 
NC1=N[C@@]2(CO1)c1cc(C#CC3CC3)ccc1Oc1ncc(N3CCC(F)(F)C3)cc12 [Example 178, (5S)-7-(cyclopropylethynyl)-3-(3,3-difluoro-1-pyrrolidinyl)spiro[chromeno[2,3-b]pyridine-5,4′-[1,3]oxazol]-2′-amine] |  | 3.1 nM |  | 14.3 nM | 
CC1(C#Cc2cnc3c(c2)[C@]2(COC(N)=N2)c2cc(-c4ccc(F)c(C#N)c4)ccc2O3)COC1 [Example 787, 5-((5S)-2′-amino-3-((3-methyl-3-oxetanyl)ethynyl)spiro[chromeno[2,3-b]pyridine-5,4′-[1,3]oxazol]-7-yl)-2-fluorobenzonitrile] |  | 5.6 nM |  | 44 nM | 
Cc1ccc(-c2cc(F)c3c(c2)[C@]2(COC(N)=N2)c2cc(OCC4(C)COC4)ccc2O3)cn1 [Example 440, (4S)-4′-fluoro-7′-((3-methyl-3-oxetanyl)methoxy)-2′-(6-methyl-3-pyridinyl)spiro[1,3-oxazole-4,9′-xanthen]-2-amine] |  | 11.7 nM |  |  | 16.9 nM
NC1=N[C@@]2(CO1)c1cc(C#CC3CC3)ccc1Oc1ncc(N3CCC(F)(F)CC3)cc12 [Example 181, (5S)-7-(cyclopropylethynyl)-3-(4,4-difluoro-1-piperidinyl)spiro[chromeno[2,3-b]pyridine-5,4′-[1,3]oxazol]-2′-amine] |  | 5.7 nM |  | 27.1 nM | 
CC#Cc1cncc(-c2ccc3c(c2)[C@@]2(COC(N)=N2)c2cc(Cl)nc(OC)c2O3)c1 [Example 829, (5S)-3-chloro-1-methoxy-7-(5-(1-propyn-1-yl)-3-pyridinyl)spiro[chromeno[2,3-c]pyridine-5,4′-[1,3]oxazol]-2′-amine] |  | 30.2 nM |  | 4100 nM | 
CC1(C)C[C@H](c2cnc3c(c2)[C@]2(COC(N)=N2)c2cc(-c4cccnc4F)ccc2O3)CCO1 [Example 453, (5S)-3-((4R)-2,2-dimethyltetrahydro-2H-pyran-4-yl)-7-(2-fluoro-3-pyridinyl)spiro[chromeno[2,3-b]pyridine-5,4′-[1,3]oxazol]-2′-amine] |  | 2.4 nM |  |  | 12.2 nM
NC1=N[C@@]2(CO1)c1cc(-c3cncc(C#CCO)c3)ccc1Oc1cnc(C3=CCCOC3)cc12 [Example 827, 3-(5-((5S)-2′-amino-3-(5,6-dihydro-2H-pyran-3-yl)spiro[chromeno[2,3-c]pyridine-5,4′-[1,3]oxazol]-7-yl)-3-pyridinyl)-2-propyn-1-ol] |  | 0.5 nM |  | 2 nM | 
COc1ccnc(F)c1-c1ccc2c(c1)[C@@]1(COC(N)=N1)c1cc(Cl)ncc1O2 [Example 680, (5S)-3-chloro-7-(2-fluoro-4-methoxy-3-pyridinyl)spiro[chromeno[2,3-c]pyridine-5,4′-[1,3]oxazol]-2′-amine] |  | 15.3 nM |  |  | 806 nM
NC1=N[C@]2(CO1)c1cc(-c3cccnc3F)ccc1Oc1cc(OC(F)(F)F)c(Br)cc12 [Example 988, (4R)-2′-bromo-7′-(2-fluoro-3-pyridinyl)-3′-(trifluoromethoxy)spiro[1,3-oxazole-4,9′-xanthen]-2-amine] |  | 40000 nM |  | ≥ 10000 nM | 
NC1=N[C@@]2(CO1)c1cc(-c3cncnc3)c(F)cc1Oc1c(F)cc(C3=CCCOC3)cc12 [Example 1039, (4S)-7′-(5,6-dihydro-2H-pyran-3-yl)-3′,5′-difluoro-2′-(5-pyrimidinyl)spiro[1,3-oxazole-4,9′-xanthen]-2-amine] |  | 0.4 nM |  | 8 nM | 
Cc1ccc(Oc2ccc3c(c2)[C@@]2(COC(N)=N2)c2cc(N4CCOCC4)cc(F)c2O3)nc1 [Example 1058, (4S)-4′-fluoro-7′-((5-methyl-2-pyridinyl)oxy)-2′-(4-morpholinyl)spiro[1,3-oxazole-4,9′-xanthen]-2-amine] |  | 50.7 nM |  | 604 nM | 
COc1cc(F)c2c(c1)[C@]1(COC(N)=N1)c1cc(-c3cncc(C(F)(F)F)c3)ccc1O2 [Example 1073, (4S)-4′-fluoro-2′-methoxy-7′-(5-(trifluoromethyl)-3-pyridinyl)spiro[1,3-oxazole-4,9′-xanthen]-2-amine] |  | 61.4 nM |  | 194 nM | 
COC(C)(C)COc1cnc2c(c1)[C@@]1(COC(N)=N1)c1cc(-c3cc(Cl)ccc3F)ccc1O2 [Example 318, (5R)-7-(5-chloro-2-fluorophenyl)-3-(2-methoxy-2-methylpropoxy)spiro[chromeno[2,3-b]pyridine-5,4′-[1,3]oxazol]-2′-amine] |  | 367 nM |  | 1810 nM | 
CC1(C#Cc2cnc3c(c2)[C@@]2(COC(N)=N2)c2cc(-c4cnccc4F)c(F)cc2O3)COC1 [Example 622, (5R)-8-fluoro-7-(4-fluoro-3-pyridinyl)-3-((3-methyl-3-oxetanyl)ethynyl)spiro[chromeno[2,3-b]pyridine-5,4′-[1,3]oxazol]-2′-amine] |  | 105 nM |  |  | 452 nM
